Experimental data as given in paper PMC5225183, “Fingerprinting of neurotoxic compounds using a mouse embryonic stem cell dual luminescence reporter assay” (Archives of Toxicology, 2016).
Entries after “also recorded” stand apart in the source; their conditions may differ. Like-named read-outs stand apart in the source and are kept apart here. Marks after values point to notes of the source that are not given here.

B1: G-CSF: Hormone stimulating granulopoiesis; Peptide/Protein (protein, UniProt P09919 31-207, looked up)
Granulocyte …: TPLGPASSLPQSFLLKCLEQVRKIQGDGAALQEKLVSECATYKLCHPEELVLLGHSLGIPWAPLSSCPSQALQLAGCLSQLHSGLFLYQGLLQALEGISPELGPTLDTLQLDVADFATTIWQQMEELGMAPALQPTQGAMPAFASAFQRRAGGVLVASHLQSFLEVSYRVLRHLAQP

Assays:
[1] = system: Tubulin α1 (Tα1) promoter; test: cells
How it was run: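 Mouse CGR8 ESCs carrying Tα1-firefly and EF1α-Renilla luciferase reporters, treated either undifferentiated (48 h exposure after 24 h plating) or as MS5-induced neurons (exposure day 6 to day 8). Dual-luciferase luminescence expressed as % promoter activity versus DMSO control wells; 5 µM methylmercury as positive control.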

[2] = system: ESCs and ESC-derived neurons; test: Dual luminescence reporter test system, all readouts in ESCs and ESC-derived neurons
How it was run: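 CGR8-2Luc mouse ESCs (dual reporter: Tα1-FLuc neural, EF1α-RLuc general) exposed 48 h after 24 h plating; ESC-derived neurons re-plated day 5 in N2/bFGF medium. Luciferase normalized to DMSO controls; PI (50 µg/ml, 2 h) measured DNA content as cytotoxicity. Curves scored by ≥30% significant change (ANOVA/Dunnett).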

[3] = cited from earlier work; for Concentration in humans (increase in blood mercury levels after vaccination): ref Pichichero et al. ([2008])
[4] = ESC-derived neurons, 48 h exposure
[5] = ESCs and neurons, FLuc, RLuc, PI
[6] = reporter activity changes in the non-cytotoxic concentration range, highest possible number 4

| Molecule | LOAEL Neurons Tα1 [1, 4] [µM] | Number of non-cytotoxic changes ([2]; mouse, 48 h) | Concentration in humans ([3]; ref Zimmer et al. ([2014])) | Number of non-cytotoxic changes [2, 6] | further results |
| --- | --- | --- | --- | --- | --- |
| C[C@]12CC[C@H](O)CC1=CC[C@@H]1[C@@H]2CC[C@]2(C)C(c3cccnc3)=CC[C@@H]12 [Abiraterone] | 1 | 1 | 0.65^k µM | – | concentration up to which no cytotoxicity in the PI assay ([2]; mouse, 48 h): > 100 µM |
| O=C(/C=C/c1cccc(S(=O)(=O)Nc2ccccc2)c1)NO [Belinostat] | 0.0005 | 1 | – | – | Concentration in humans ([3]; ref Wei et al. ([2014])): 0.36^f µM |
| Nc1ccccc1NC(=O)c1ccc(CNC(=O)OCc2cccnc2)cc1 [Entinostat] | 0.5 | 1 | – | – | – |
| COc1cc2ncnc(Nc3ccc(F)c(Cl)c3)c2cc1OCCCN1CCOCC1 [Gefitinib] | 50 | 0 | 1.2^k µM | – | – |
| COC1=C2C[C@@H](C)C[C@H](OC)[C@H](O)[C@@H](C)/C=C(\C)[C@H](OC(N)=O)[C@@H](OC)/C=C\C=C(/C)C(=O)NC(=CC1=O)C2=O [Geldanamycin] | 0.05 | 1 | 0.8^k µM | – | result in the dual luminescence reporter test system [2]: considerable cytotoxicity; EC20 ([2]; in vitro system (neurons and ESCs)): 1 to 10 nM |
| [Br][Hg][Br] [Mercury bromide] | 10 | – | – | – | Number of non-cytotoxic changes [2]: 1 |
| COCC(=O)O [Methoxyacetic acid] | 50 | – | – | 1 | inhibition at 50 µM ([1]; Mus musculus, Neuron, read-out: inhibition of neuronal promoter activity): ~40%; result in the dual luminescence reporter test system [2, 5]: very weak signal; also recorded: relatively weak signal; Concentration in humans (human exposure concentration) ([3]; ref Zimmer et al. ([2014])): 60^k (human exposure concentration) µM |
| [CH3][Hg][Cl] [Methylmercury] | 0.05 | – | – | 1 | Concentration in humans ([3]; ref Krug et al. ([2013b])): 0.005–0.5^e µM; Concentration in humans ([3]; ref Krug et al. ([2013b]), listed as methylmercury): 0.005 to 0.5 µM |
| COC(=O)c1ccc2c(c1)NC(=O)/C2=C(\Nc1ccc(N(C)C(=O)CN2CCN(C)CC2)cc1)c1ccccc1 [Nintedanib] | 0.05 | 2 | 0.074^k µM | – | – |
| COc1ccc2[nH]c([S+]([O-])Cc3ncc(C)c(OC)c3C)nc2c1 (stereo not drawn) [Omeprazole] | >50 | 0 | – | – | result in the dual luminescence reporter test system [2]: negative; Concentration in humans ([3]; ref Linden et al. ([2007])): 0.8^b µM |
| Brc1ccc(Oc2cc(Br)c(Br)cc2Br)c(Br)c1 [PBDE-99] | >50 | – | – | 1 | result in the dual luminescence reporter test system [2, 5]: potentially neurotoxic; Concentration in humans (human exposure concentration) ([3]; ref Zimmer et al. ([2014])): 97*10^−6k (human exposure concentration) µM; Human exposure concentrations ([3]; ref Zimmer et al. ([2014])): 5 to 100 pM |
| Cc1[nH]c2ccccc2c1CCNCc1ccc(/C=C/C(=O)NO)cc1 [Panobinostat] | 0.0005 | 1 | – | – | effect on neural promoter activity in neurons [1]: inhibited at subnanomolar concentrations; result in the dual luminescence reporter test system [2]: no enhancement of promoter activities under any condition; Concentration in humans ([3]; ref Bauer et al. ([2014])): 0.036–0.045^h µM |
| CC(C)NCC(O)COc1cccc2ccccc12 (stereo not drawn) [Propranolol] | 50 | 2 | – | – | Concentration in humans ([3]; ref International Programme on Chemical Safety): 0.12–0.19^d µM |
| O=C(NC[C@H]1CN(c2ccc(N3CCOCC3=O)cc2)C(=O)O1)c1ccc(Cl)s1 [Rivaroxaban] | >10 | 0 | 0.69^k µM | – | – |
| C/C(O)=C(\C#N)C(=O)Nc1ccc(C(F)(F)F)cc1 [Teriflunomide] | 50 | – | 10.8^k µM | 1 | effect on neural promoter activity in neurons [1]: increase; concentration range of various effects [2]: 4 to 40 µM; result in the dual luminescence reporter test system [2, 5]: no effects on general promoter activity and/or on PI fluorescence |
| C[CH2][Hg][S]c1ccccc1C(=O)[O-].[Na+] [Thimerosal] | – | – | – | – | LOAEL Neurons Tα1 [1]: 0.5 µM; Number of non-cytotoxic changes [2]: 0; increase in blood mercury levels after vaccination ([3]; conversion of <5 ng/ml, ref Pichichero et al. [2008]): ~25 nM; Concentration in humans (increase in blood mercury levels after vaccination) [3]: Max 5 ng/ml^j; Concentration in humans (increase in blood mercury levels after vaccination) ([3]; listed as thimerosal): < 5 ng/mL |
| O=c1[nH]c(=O)c2[nH]c(=O)[nH]c2[nH]1 [Uric acid] | >50 | – | – | 0 | result in the dual luminescence reporter test system [2, 5]: negative |
| CCCC(CCC)C(=O)O [Valproic acid] | 50 | 2 | – | – | Concentration in humans ([3]; ref Krug et al. ([2013b])): 500–1000^e µM |
| Erythropoietin: EpoR agonist controlling erythropoiesis and neurogenesis; Peptide/Protein | >0.238 | – | 0.0003^k µM | 0 | – |
| Oxytocin | >0.1 | – | 0.002^k µM | 0 | result in the dual luminescence reporter test system [2, 5]: did not have any effects |
| B1 | >0.00266 | – | 1.3*10^−6k µM | 0 | – |
